Data: PubChem BioAssay (NCI)
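Interpolation was linear, between the two tested concentrations surrounding the appropriate level; five concentrations were tested over 48 hours in 96-well plates. At the GI50, growth is halved. TGI is the concentration that stops growth completely.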

How the values were obtained:
Assay in all cases: NCI anticancer screen, dose series, 48 h
[1] = system: HOP-62 NSCLC
[2] = system: K-562 leukemia
[3] = system: MALME-3M melanoma
[4] = system: NCI-H226 lung
[5] = system: SF-539 CNS
[6] = system: SK-MEL-28 melanoma
[7] = system: SK-MEL-5 melanoma
[8] = system: SNB-19 CNS
[9] = system: SNB-75 CNS
[10] = system: UO-31 renal

Row | SMILES | TGI [1] [µM] | TGI [2] [µM] | TGI [3] [µM] | TGI [4] [µM] | TGI [5] [µM] | TGI [6] [µM] | TGI [7] [µM] | TGI [8] [µM] | TGI [9] [µM] | TGI [10] [µM] | GI50 [3] [µM] | GI50 [4] [µM] | GI50 [2] [µM] | GI50 [5] [µM] | GI50 [6] [µM] | GI50 [7] [µM] | GI50 [8] [µM] | GI50 [9] [µM] | GI50 [10] [µM]
1 | N#Cc1c(C#N)c(SSc2c(C#N)c(C#N)c(N)n2-c2ccccc2)n(-c2ccccc2)c1N | > 69.1 | > 100 | 3.26 | 54.3 | > 100 | 40.9 | 31.9 | > 63.1 | > 70 | 3.08 |  |  |  |  |  |  |  |  | 
2 | CN1OC(=O)N(C)C1c1ccccc1 (stereo not drawn) | > 100 | > 100 | > 100 | > 100 | > 100 | > 100 | > 100 | > 100 | > 100 | > 100 |  |  |  |  |  |  |  |  | 
3 | CNC(=O)CN1CC(=O)N(C)C(=O)C1 | > 100 | > 100 | > 100 | > 100 |  | > 100 | > 100 | > 100 | > 100 | > 100 |  |  |  |  |  |  |  |  | 
4 | O=C(O)CCC1(c2ccccc2)NC(=O)NC1=O (stereo not drawn) | > 100 | > 100 | > 100 | > 100 | > 100 | > 100 | > 100 | > 100 | > 100 |  |  |  |  |  |  |  |  |  | 
5 | COc1ccc2c(c1)c1cc(OC)ccc1n2CCCCOc1ccc(-c2c3ccccc3c(-c3ccc(OCCCCn4c5ccc(OC)cc5c5cc(OC)ccc54)cc3)c3ccccc23)cc1 | > 100 | > 100 | > 100 | > 100 | > 100 | > 100 |  | > 100 | > 100 | > 100 |  |  |  |  |  |  |  |  | 
6 | CC(=O)Oc1c(OC(C)=O)c(-c2ccc(O)c(O)c2)c(O)c(O)c1-c1ccc(O)cc1 | > 100 | > 100 | > 100 | > 100 | > 100 | > 100 | > 100 | > 100 | > 100 | > 100 | 51.3 | 79.7 |  |  |  |  |  |  | 
7 | Nc1ccn(C2OC(COP(=O)(O)Oc3ccccc3)C(O)C2O)c(=O)n1 (stereo not drawn) |  | > 100 | > 100 | > 100 | > 100 | > 100 | > 100 | > 100 | > 100 | > 100 |  |  |  |  |  |  |  |  | 
8 | COc1ccc(NC2=NCCO2)c2ccccc12 | > 10 | > 10 | > 10 | > 10 | > 10 | > 10 | > 10 | > 10 | > 10 | > 10 |  |  |  |  |  |  |  |  | 
9 | Cc1nc(-c2nc([N+](=O)[O-])c([N+](=O)[O-])[nH]2)cs1 | > 100 | > 100 | > 100 | > 100 | > 100 | > 100 | > 100 | > 100 | > 100 | > 100 |  |  |  |  |  |  |  |  | 
10 | CCN1/C(=C/C(C)=C/c2sc3ccccc3[n+]2CC)Sc2ccccc21 | 0.391 | 1.24 | 1.71 |  | 1.11 | 1.22 | 1.11 | 0.0976 | 1.15 | 1.47 |  |  |  |  |  |  |  |  | 
11 | O/N=C\c1cc(O)c(O)c(/C=N/O)c1 | > 100 | > 100 | > 100 | 78.6 | > 100 | > 100 | > 100 | > 100 | > 100 | > 100 |  |  |  |  |  |  |  |  | 
12 | Cc1ccc2[nH]c3c(C)c4ccncc4c(C)c3c2c1 | 3.24 | 2.52 | 4.16 | 7.59 | 2.68 | 3.47 | 2.92 | 2.62 | 3.17 | 3.03 |  |  |  |  |  |  |  |  | 
13 | O=C(CCN1CCCC1)Nc1ccc2c(NCCCc3ccccc3)c3ccccc3nc2c1 |  | 3.36 | 3.12 | 2.83 | 2.55 | 3.25 | 2.97 | 2 | 2.41 | 3.16 | 1.58 | 1.27 | 0.945 | 1.24 | 1.77 | 1.61 | 0.729 | 1.17 | 1.6
14 | COc1cc2c(cc1OC)CCN=C2 | > 100 |  | > 100 | > 100 |  | > 100 | > 100 | > 100 | > 100 | > 100 |  |  |  |  |  |  |  |  | 
